Measured values: US6262031A, “Method for treating pediculosis capitisinfestation” (Merck & Co., Inc., priority 2000, dated 2001)

How the values were obtained:
Onchocerca volvulus [1] = conditions: single oral dose, cited from earlier work
head lice [2] = conditions: single topical application; cited from earlier work
[3] = cited from earlier work
Pediculosis capitis = conditions: 200 ug/kg single oral dose, 26 patients; cited from earlier work
head lice [4] = conditions: single oral dose 100-200 ug/kg; cited from earlier work
[5] = Example 7: ivermectin plasma levels in fasted and fed state; type: in vivo, human; conditions: 30 mg oral; high fat meal vs fasting, three weeks apart
[6] = ivermectin; cited from earlier work
nematodes = conditions: cited from earlier work
Onchocerca volvulus [7] = conditions: cited from earlier work
[8] = tested on: mammalian ligand-gated chloride channels; conditions: cited from earlier work
head lice [9] = assay: Example 8: comparison of head lice treatment using orally administered ivermectin at cumulative doses of 800, 1200 and 600 ug/kg and shampoo cleaning; type: in vivo, human; conditions: for Treatment success (%) Day 15: washing shampoo the day after each dose
Description: On Days 1, 4 and 8, patients had their scalp inspected for nits and lice. Their hair was shampooed on Days 2, 5, 9, and 15. The rinse water was filtered through a towel that enabled the number of lice (for each stage of nymph and/or adult lice) to be recorded. An independent qualitative assessment was performed on those towels with live lice at Day 15. Clinical adverse experiences were collected at all visits.
The primary analysis was based on treatment outcome (success or failure) on Day 15. "Treatment success" is defined to mean that no live lice were observed on Day 15, or, if lice were present on Day 15, that they were the result of reinfestation. "Reinfestation" corresponds to the condition where the patient, previously free of lice (including any stage nymphs and/or adult lice) on Day 9, is infested thereafter with adult lice. Patients who were reinfested were counted as successes. The percent of treatment success was calculated.
(§1) Three groups of patients were treated.

[10] = tested on: glutamate-gated chloride ion channels; conditions: invertebrate nerve and muscle cells; cited from earlier work
[11] = tested on: Strongyloides stercoralis; conditions: cited from earlier work
[12] = tested on: adult worm of any species of Filarioidea; conditions: causing lymphatic filariasis, tropical pulmonary eosinophilia syndrome, lymphadenitis or lymphangitis; cited from earlier work
head lice [13] = assay: Example 2: comparison of head lice treatment using orally administered ivermectin at cumulative doses of 200, 400 and 600 ug/kg; type: in vivo, human
Description: On Days 1, 4, 8 and 15, patients had their scalp inspected for viable nits and their hair shampooed (prior to dosing, if the day for scalp inspection was also a "dosing" day). The rinse water was filtered through a towel that enabled the number of lice (for each stage of nymphs and/or adult lice) to be recorded. An independent qualitative assessment was performed on a subset of towels. All patients were also seen on Days 5 and 9 for the assessment of clinical adverse experiences.
The primary analysis was based on treatment outcome (success or failure) on Day 15. "treatment success" is defined to mean that no live lice were observed on Day 15. "Reinfestation" corresponds to the condition where the patient, previously free of lice (including any stage nymphs and/or adult lice) on Day 8, is infested thereafter with adult lice. "Reinfestation" also corresponds to the condition where the patient, previously free of lice and nits, is infested thereafter with adult lice and first and second stage nymphs. The percent of treatment success was calculated.
as §1

mixture containing at least 90% 5-O-demethyl-22,23-dihydroavermectin A1a and less than 10% 5-O-demethyl-25-de(1-methylpropyl)-22,23-dihyro-25-(1-methylethyl) avermectin A1a [ivermectin]
dermal microfilarial density (Onchocerca volvulus [1]; after one month): near zero
maintenance of low microfilarial level (Onchocerca volvulus [1]): up to 12 months
curative effect on head lice (head lice [2]): absolute curative effect
overall incidences of adverse experiences ([3]; amicrofilaremic population, mass treatment programs): 1%
laboratory abnormalities ([3]; studies of microfilaremic patients): eosinophilia, liver function abnormalities and hematuria
effectiveness against head lice (Pediculosis capitis): effectiveness of ivermectin 200 mcg/kg single dose against head lice
effect on head lice infestation (head lice [4]): significant, but not absolute, effect
increase in bioavailability, fed vs fasted state [5]: 2.5 times
plasma half-life [6]: about 12 hours
activity against life-cycle stages of nematodes (nematodes): active against various life-cycle stages of many but not all nematodes
activity against the adult form (Onchocerca volvulus [7]; adult form): not against the adult form
activity against tissue microfilariae (Onchocerca volvulus [7]; tissue microfilariae): active against the tissue microfilariae
affinity for mammalian ligand-gated chloride channels [8]: low affinity
Treatment success (%) Day 15 (head lice [9]; Group 1: oral 400 ug/kg on Days 1 and 8, 57 patients): 98.2%
Treatment success (%) Day 15 (head lice [9]; Group 2: oral 400 ug/kg on Days 1, 4 and 8, 60 patients): 100%
Treatment success (%) Day 15 (head lice [9]; Group 3: oral 200 ug/kg on Days 1, 4 and 8, 57 patients): 100%
success rates, comparison of groups (head lice [9]; all three study groups, Day 15): comparable success rates
binding affinity to glutamate-gated chloride ion channels [10]: selectively binds with high affinity
effect of binding on cell membrane and parasite [10]: increase in the permeability of the cell membrane to chloride ions with hyperpolarization of the nerve or muscle cell, resulting in paralysis and death of the parasite
activity against Strongyloides stercoralis [11]: limited to the intestinal stages
activity against adult worm of any species of Filarioidea [12]: has not been shown to have any activity against adult worm
success rate, comparison of groups (head lice [13]; 200 ug/kg doses on Days 1, 4 and 8): highest success rate
Treatment success (%) Day 15 (head lice [13]; Group 1: oral 200 ug/kg on Day 1, 29 patients): 52%
Treatment success (%) Day 15 (head lice [13]; Group 2: oral 200 ug/kg on Days 1 and 8, 28 patients): 68%
Treatment success (%) Day 15 (head lice [13]; Group 3: oral 200 ug/kg on Days 1, 4 and 8, 31 patients): 81%
